Data: PubChem BioAssay (NCI)
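Method: 48-hour compound exposure of cells in 96-well plates, five concentrations, linear interpolation of endpoints. The concentration for 50% growth inhibition is given as GI50. TGI: concentration producing complete growth inhibition.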

Legend:
Experiment in all cases: NCI tumour cell line growth inhibition, 48 h
786-0 renal = tested on: 786-0 renal
A498 renal = tested on: A498 renal
A549 NSCLC = tested on: A549 NSCLC
ACHN renal = tested on: ACHN renal
BT-549 breast = tested on: BT-549 breast
CAKI-1 renal = tested on: CAKI-1 renal
CCRF-CEM leukemia = tested on: CCRF-CEM leukemia
COLO 205 colon = tested on: COLO 205 colon
DU-145 prostate = tested on: DU-145 prostate
EKVX NSCLC = tested on: EKVX NSCLC
HCC-2998 colon = tested on: HCC-2998 colon
HCT-116 colon = tested on: HCT-116 colon
HCT-15 colon = tested on: HCT-15 colon
HL-60(TB) leukemia = tested on: HL-60(TB) leukemia
HOP-62 NSCLC = tested on: HOP-62 NSCLC
HOP-92 NSCLC = tested on: HOP-92 NSCLC
HS 578T breast = tested on: HS 578T breast
HT29 colon = tested on: HT29 colon
IGROV1 ovarian = tested on: IGROV1 ovarian
K-562 leukemia = tested on: K-562 leukemia
KM12 colon = tested on: KM12 colon
LOX IMVI melanoma = tested on: LOX IMVI melanoma
M14 melanoma = tested on: M14 melanoma
MALME-3M melanoma = tested on: MALME-3M melanoma
MCF7 breast = tested on: MCF7 breast
MDA-MB-231 breast = tested on: MDA-MB-231 breast
MDA-MB-435 = tested on: MDA-MB-435
MDA-MB-468 breast = tested on: MDA-MB-468 breast
MOLT-4 leukemia = tested on: MOLT-4 leukemia
NCI-H226 lung = tested on: NCI-H226 lung
NCI-H23 lung = tested on: NCI-H23 lung
NCI-H460 lung = tested on: NCI-H460 lung
NCI-H522 lung = tested on: NCI-H522 lung
NCI/ADR-RES ovarian = tested on: NCI/ADR-RES ovarian
OVCAR-3 ovarian = tested on: OVCAR-3 ovarian
OVCAR-4 ovarian = tested on: OVCAR-4 ovarian
OVCAR-5 ovarian = tested on: OVCAR-5 ovarian
OVCAR-8 ovarian = tested on: OVCAR-8 ovarian
PC-3 prostate = tested on: PC-3 prostate
RPMI-8226 leukemia = tested on: RPMI-8226 leukemia
RXF 393 renal = tested on: RXF 393 renal
SF-268 CNS = tested on: SF-268 CNS
SF-295 CNS = tested on: SF-295 CNS
SF-539 CNS = tested on: SF-539 CNS
SK-MEL-2 melanoma = tested on: SK-MEL-2 melanoma
SK-MEL-28 melanoma = tested on: SK-MEL-28 melanoma
SK-MEL-5 melanoma = tested on: SK-MEL-5 melanoma
SK-OV-3 ovarian = tested on: SK-OV-3 ovarian
SN12C renal = tested on: SN12C renal
SNB-19 CNS = tested on: SNB-19 CNS
SNB-75 CNS = tested on: SNB-75 CNS
SR leukemia = tested on: SR leukemia
SW-620 colon = tested on: SW-620 colon
T-47D breast = tested on: T-47D breast
TK-10 renal = tested on: TK-10 renal
U251 CNS = tested on: U251 CNS
UACC-257 melanoma = tested on: UACC-257 melanoma
UACC-62 melanoma = tested on: UACC-62 melanoma
UO-31 renal = tested on: UO-31 renal

COc1ccc(-c2cc(-c3cc(C(C)C)c(O)cc3C)nn2-c2ccc(S(N)(=O)=O)cc2)cc1
GI50 (786-0 renal): 12.2 µM
TGI (786-0 renal): 25 µM
GI50 (A498 renal): 13.9 µM
TGI (A498 renal): 27.8 µM
GI50 (A549 NSCLC): 6.2 µM
TGI (A549 NSCLC): 20.6 µM
GI50 (ACHN renal): 11.7 µM
TGI (ACHN renal): 23.9 µM
GI50 (BT-549 breast): 3.29 µM
TGI (BT-549 breast): 13.2 µM
GI50 (CAKI-1 renal): 5.59 µM
TGI (CAKI-1 renal): 19.2 µM
GI50 (CCRF-CEM leukemia): 3.43 µM
TGI (CCRF-CEM leukemia): 26.3 µM
GI50 (COLO 205 colon): 18.7 µM
TGI (COLO 205 colon): 34.1 µM
GI50 (DU-145 prostate): 7.31 µM
TGI (DU-145 prostate): 19.8 µM
GI50 (EKVX NSCLC): 10.3 µM
TGI (EKVX NSCLC): 21.9 µM
GI50 (HCC-2998 colon): 11.4 µM
TGI (HCC-2998 colon): 23.6 µM
GI50 (HCT-116 colon): 6.17 µM
TGI (HCT-116 colon): 21.3 µM
GI50 (HCT-15 colon): 3.69 µM
TGI (HCT-15 colon): 14.5 µM
GI50 (HL-60(TB) leukemia): 3.53 µM
TGI (HL-60(TB) leukemia): 19.8 µM
GI50 (HOP-62 NSCLC): 10.7 µM
TGI (HOP-62 NSCLC): 23.9 µM
GI50 (HOP-92 NSCLC): 7.18 µM
TGI (HOP-92 NSCLC): 21.5 µM
GI50 (HS 578T breast): 11.9 µM
TGI (HS 578T breast): 38.6 µM
GI50 (HT29 colon): 16.2 µM
TGI (HT29 colon): 30.2 µM
GI50 (IGROV1 ovarian): 13.4 µM
TGI (IGROV1 ovarian): 26.5 µM
GI50 (K-562 leukemia): 2.82 µM
TGI (K-562 leukemia): 18 µM
GI50 (KM12 colon): 3.76 µM
TGI (KM12 colon): 14.6 µM
GI50 (LOX IMVI melanoma): 5.47 µM
TGI (LOX IMVI melanoma): 18.1 µM
GI50 (M14 melanoma): 11.3 µM
TGI (M14 melanoma): 25.1 µM
GI50 (MALME-3M melanoma): 11.8 µM
TGI (MALME-3M melanoma): 24.3 µM
GI50 (MCF7 breast): 4.89 µM
TGI (MCF7 breast): 20 µM
GI50 (MDA-MB-231 breast): 7.99 µM
TGI (MDA-MB-231 breast): 21 µM
GI50 (MDA-MB-435): 2.22 µM
TGI (MDA-MB-435): 4.84 µM
GI50 (MDA-MB-468 breast): 2.07 µM
TGI (MDA-MB-468 breast): 5.71 µM
GI50 (MOLT-4 leukemia): 2.88 µM
TGI (MOLT-4 leukemia): 8.39 µM
GI50 (NCI-H226 lung): 16.8 µM
TGI (NCI-H226 lung): 38.8 µM
GI50 (NCI-H23 lung): 10.5 µM
TGI (NCI-H23 lung): 23 µM
GI50 (NCI-H460 lung): 8.42 µM
TGI (NCI-H460 lung): 22 µM
GI50 (NCI-H522 lung): 3.15 µM
TGI (NCI-H522 lung): 13.7 µM
GI50 (NCI/ADR-RES ovarian): 3.06 µM
TGI (NCI/ADR-RES ovarian): 11.4 µM
GI50 (OVCAR-3 ovarian): 5.16 µM
TGI (OVCAR-3 ovarian): 17 µM
GI50 (OVCAR-4 ovarian): 13.6 µM
TGI (OVCAR-4 ovarian): 31 µM
GI50 (OVCAR-5 ovarian): 16.3 µM
TGI (OVCAR-5 ovarian): 29.8 µM
GI50 (OVCAR-8 ovarian): 8.17 µM
TGI (OVCAR-8 ovarian): 23.2 µM
GI50 (PC-3 prostate): 10.3 µM
TGI (PC-3 prostate): 24.7 µM
GI50 (RPMI-8226 leukemia): 4.83 µM
TGI (RPMI-8226 leukemia): 32.8 µM
GI50 (RXF 393 renal): 5.76 µM
TGI (RXF 393 renal): 20.7 µM
GI50 (SF-268 CNS): 12.9 µM
TGI (SF-268 CNS): 28.6 µM
GI50 (SF-295 CNS): 10.9 µM
TGI (SF-295 CNS): 22.8 µM
GI50 (SF-539 CNS): 3.63 µM
TGI (SF-539 CNS): 13.3 µM
GI50 (SK-MEL-2 melanoma): 13.7 µM
TGI (SK-MEL-2 melanoma): 26.9 µM
GI50 (SK-MEL-28 melanoma): 13 µM
TGI (SK-MEL-28 melanoma): 25.7 µM
GI50 (SK-MEL-5 melanoma): 11.1 µM
TGI (SK-MEL-5 melanoma): 23.3 µM
GI50 (SK-OV-3 ovarian): 13.8 µM
TGI (SK-OV-3 ovarian): 27.3 µM
GI50 (SN12C renal): 12 µM
TGI (SN12C renal): 25.1 µM
GI50 (SNB-19 CNS): 12.5 µM
TGI (SNB-19 CNS): 25 µM
GI50 (SNB-75 CNS): 6.08 µM
TGI (SNB-75 CNS): 18.6 µM
GI50 (SR leukemia): 1.91 µM
TGI (SR leukemia): 15.1 µM
GI50 (SW-620 colon): 6.44 µM
TGI (SW-620 colon): 20.4 µM
GI50 (T-47D breast): 4.32 µM
TGI (T-47D breast): 21.3 µM
GI50 (TK-10 renal): 15 µM
TGI (TK-10 renal): 28.4 µM
GI50 (U251 CNS): 4.49 µM
TGI (U251 CNS): 16.5 µM
GI50 (UACC-257 melanoma): 12.7 µM
TGI (UACC-257 melanoma): 25.7 µM
GI50 (UACC-62 melanoma): 10.2 µM
TGI (UACC-62 melanoma): 22.1 µM
GI50 (UO-31 renal): 7.83 µM
TGI (UO-31 renal): 20.6 µM
